For data set [1] the following is noted: background statement, no own test described; cited from earlier work.
Data set [2] deals with T1, rhMMP-13 (Homo sapiens, UniProt P45452).
T1 construct: purchased R&D Systems (Minneapolis, MN, USA)
The experiment in a line: MMP inhibition assay, fluorogenic substrate cleavage kinetics. Format: biochemical. The procedure: (§1) MMP inhibition assays were carried out based on the kinetic effects of an inhibitor on the MMP-mediated catalytic cleavage of a fluorogenic substrate, namely Mca-Lys-Pro-Leu-Gly-Leu-Dpa-Ala-Arg-NH2, as reported by others previously[9],[23],[28]. In the first set of studies, the inhibitory effect of RYM was evaluated against 5 activated recombinant human (rh)MMPs, including rhMMP-2, rhMMP-7, rhMMP-9, rhMMP-12, and rhMMP-13.
(§2) The recombinant human MMPs (rhMMPs) including rhMMP-2, rhMMP-7, rhMMP-9, rhMMP-12, and rhMMP-13 were purchased from R&D Systems (Minneapolis, MN, USA). A buffer consisting of 50 mM Tris, 10 mM CaCl2, 150 mM NaCl, 0.05% Brij-35 (w/v) (pH 7.5, […]) was used for all the MMP assays. A mixture of the rhMMPs (500 ng, 9 µL in assay buffer) and p-aminophenylmercuric acetate (APMA, 1 µL, 10.0 mM in DMSO) was incubated at 37 °C (1 h/rhMMP-2, 2 h/rhMMP-7, 24 h/rhMMP-9, 4 h/rhMMP-12, and 2 h/rhMMP-13) according to the procedures described by R&D Systems. The activated MMPs were diluted to 500 µL in the assay buffer for inhibition assays. The assays were carried out in 96-well black non-binding surface microplates (Fisher Scientific). Seventy microliter (for inhibitor wells) and 80 µL (control wells) of the assay buffer were first added into each well as designed, followed by adding 10 µL (10 ng) of the activated MMP solutions into each well. The inhibitor solutions at 4 different concentrations (10 µL each well) were added into the corresponding inhibitor wells in the microplate which was then swirled at room temperature for 30 min. Ten microliter of the fluorogenic MMP substrate solutions (R&D SYSTEMS®) at 4 different concentrations (20.0, 30.0, 40.0, and 50.0 µM) in assay buffer were added into each well to make a total volume of 100 µL. […] Finally, the competitive inhibition constants (Ki value) were calculated from the mean velocity values, and related substrate (S) and inhibitor (I) concentrations using GraphPad Prism 6 by the following equation for competitive inhibition, where Vmax is the maximal velocity, the KM Michaelis-Menten constant: v=Vmax[S]/KM(1+[I]/Ki)+[S]

In data set [3] the target is T2, rhMMP-2 (Homo sapiens, UniProt P08253).
T2 construct: purchased R&D Systems (Minneapolis, MN, USA)
T2 sequence (P08253 110-660): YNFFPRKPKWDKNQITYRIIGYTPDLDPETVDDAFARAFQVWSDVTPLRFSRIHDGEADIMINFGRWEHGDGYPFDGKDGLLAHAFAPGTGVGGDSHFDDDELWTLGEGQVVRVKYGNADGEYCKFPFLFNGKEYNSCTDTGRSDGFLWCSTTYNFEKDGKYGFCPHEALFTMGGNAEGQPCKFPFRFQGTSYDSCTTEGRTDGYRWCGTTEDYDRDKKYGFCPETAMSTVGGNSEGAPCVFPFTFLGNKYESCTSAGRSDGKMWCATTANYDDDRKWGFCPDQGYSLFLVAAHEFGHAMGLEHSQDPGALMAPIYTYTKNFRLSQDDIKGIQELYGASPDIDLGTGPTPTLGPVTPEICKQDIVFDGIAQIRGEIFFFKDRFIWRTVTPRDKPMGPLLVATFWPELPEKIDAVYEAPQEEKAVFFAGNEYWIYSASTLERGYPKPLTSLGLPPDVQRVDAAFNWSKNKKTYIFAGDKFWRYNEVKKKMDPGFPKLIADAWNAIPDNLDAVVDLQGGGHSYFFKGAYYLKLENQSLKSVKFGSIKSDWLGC
The description is as above. The format is biochemical. Particulars: mean ± SD of three experiments. The procedure:
as §1, §2

Data set [4] deals with T3, rhMMP-9 (Homo sapiens, UniProt P14780).
T3 construct: purchased R&D Systems (Minneapolis, MN, USA)
T3 sequence (P14780 107-707 limits assumed): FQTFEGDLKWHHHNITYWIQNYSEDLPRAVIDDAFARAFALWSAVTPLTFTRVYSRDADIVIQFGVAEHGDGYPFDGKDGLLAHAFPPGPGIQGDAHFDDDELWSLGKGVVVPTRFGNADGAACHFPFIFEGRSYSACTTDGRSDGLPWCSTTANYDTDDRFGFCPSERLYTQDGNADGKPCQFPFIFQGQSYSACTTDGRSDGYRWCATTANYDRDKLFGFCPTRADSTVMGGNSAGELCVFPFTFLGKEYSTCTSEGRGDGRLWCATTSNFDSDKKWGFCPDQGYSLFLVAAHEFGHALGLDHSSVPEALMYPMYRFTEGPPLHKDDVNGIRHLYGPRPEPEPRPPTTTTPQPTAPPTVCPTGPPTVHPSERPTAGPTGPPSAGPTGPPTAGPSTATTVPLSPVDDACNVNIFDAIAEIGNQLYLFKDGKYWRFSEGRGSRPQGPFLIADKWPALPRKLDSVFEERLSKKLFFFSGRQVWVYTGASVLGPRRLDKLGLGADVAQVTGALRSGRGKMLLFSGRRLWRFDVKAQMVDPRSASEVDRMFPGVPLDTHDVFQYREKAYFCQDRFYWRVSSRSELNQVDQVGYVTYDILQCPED
The data set is described as above. Format: biochemical. Particulars: mean ± SD of three experiments. The procedure: as §1, §2

For data set [5], the target named is T4, rhMMP-7 (Homo sapiens, UniProt P09237).
T4 construct: purchased R&D Systems (Minneapolis, MN, USA)
T4 sequence (P09237 95-267): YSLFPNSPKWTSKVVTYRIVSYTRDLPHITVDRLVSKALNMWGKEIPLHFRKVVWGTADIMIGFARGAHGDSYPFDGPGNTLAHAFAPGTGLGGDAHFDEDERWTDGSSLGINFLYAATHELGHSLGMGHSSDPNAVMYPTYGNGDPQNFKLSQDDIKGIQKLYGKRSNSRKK
The data set is described as above. The format is biochemical. The following applies: mean ± SD of three experiments. The method, then:
(§3) MMP inhibition assays were carried out based on the kinetic effects of an inhibitor on the MMP-mediated catalytic cleavage of a fluorogenic substrate, namely Mca-Lys-Pro-Leu-Gly-Leu-Dpa-Ala-Arg-NH2, as reported by others previously[9],[23],[28]. In the first set of studies, the inhibitory effect of RYM was evaluated against 5 activated recombinant human (rh)MMPs, including rhMMP-2, rhMMP-7, rhMMP-9, rhMMP-12, and rhMMP-13. […] RYM also had potent MMP inhibition with Ki values at nM concentrations.
The recombinant human MMPs (rhMMPs) including rhMMP-2, rhMMP-7, rhMMP-9, rhMMP-12, and rhMMP-13 were purchased from R&D Systems (Minneapolis, MN, USA). […] The microplate fluorescence was measured at 320 nm (excitation) and 405 nm (emission) wavelengths for 30 min (1.44 min intervals, sensitivity 100, shaking intensity 4 and duration 30 s) by a fluorescent plate reader (BIO-TEK/Synergy HT) to generate the fluorescence kinetic curves and related mean velocity values (v), i.e. relative fluorescence units per min (RFU/min). Finally, the competitive inhibition constants (Ki value) were calculated from the mean velocity values, and related substrate (S) and inhibitor (I) concentrations using GraphPad Prism 6 by the following equation for competitive inhibition, where Vmax is the maximal velocity, the KM Michaelis-Menten constant: v=Vmax[S]/KM(1+[I]/Ki)+[S]

The target in data set [6] is T5, rhMMP-12 (Homo sapiens, UniProt P39900).
T5 construct: purchased R&D Systems (Minneapolis, MN, USA)
T5 sequence (P39900 106-470): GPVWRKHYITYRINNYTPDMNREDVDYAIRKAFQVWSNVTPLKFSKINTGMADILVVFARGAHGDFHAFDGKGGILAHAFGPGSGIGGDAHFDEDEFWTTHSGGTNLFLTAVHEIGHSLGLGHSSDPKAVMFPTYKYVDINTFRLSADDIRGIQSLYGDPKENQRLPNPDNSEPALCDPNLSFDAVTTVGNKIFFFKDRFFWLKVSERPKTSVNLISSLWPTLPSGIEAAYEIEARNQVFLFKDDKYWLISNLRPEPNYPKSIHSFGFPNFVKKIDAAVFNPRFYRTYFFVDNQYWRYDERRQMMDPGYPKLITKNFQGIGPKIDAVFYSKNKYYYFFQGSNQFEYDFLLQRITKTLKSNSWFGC
The description is as above. The format is biochemical. Particulars: mean ± SD of three experiments. The procedure: as §3
Next, we evaluated the effect of ^99mTc-labeling on RYM MMP inhibition, using rhMMP-12 as a representative enzyme. A solution of ^99mTc-RYM1 prepared from 2 µg of RYM1 was decayed at −80 °C for two days, lyophilized, and re-dissolved in saline for MMP inhibition assays.
The recombinant human MMPs (rhMMPs) including rhMMP-2, rhMMP-7, rhMMP-9, rhMMP-12, and rhMMP-13 were purchased from R&D Systems (Minneapolis, MN, USA). […] The microplate fluorescence was measured at 320 nm (excitation) and 405 nm (emission) wavelengths for 30 min (1.44 min intervals, sensitivity 100, shaking intensity 4 and duration 30 s) by a fluorescent plate reader (BIO-TEK/Synergy HT) to generate the fluorescence kinetic curves and related mean velocity values (v), i.e. relative fluorescence units per min (RFU/min). […]

Data set [7] is described as follows: Water solubility. Format: physicochemical. The following applies: described as good water solubility.
Data set [8] addresses Recombinant Human TACE/ADAM17 (Homo sapiens, UniProt P78536). The experiment in a line: TACE inhibition assay, fluorogenic peptide substrate.
The target of data set [9] is T5, rhMMP-12. On the set-up: method as in PMID 28360209. The following applies: value marked with citation; cited from earlier work.

In brackets after ≈: the same amount, converted by molar mass. Where two headings read alike, the source gives them in different places.

Sequence of Recombinant Human TACE/ADAM17 (P78536 215-824): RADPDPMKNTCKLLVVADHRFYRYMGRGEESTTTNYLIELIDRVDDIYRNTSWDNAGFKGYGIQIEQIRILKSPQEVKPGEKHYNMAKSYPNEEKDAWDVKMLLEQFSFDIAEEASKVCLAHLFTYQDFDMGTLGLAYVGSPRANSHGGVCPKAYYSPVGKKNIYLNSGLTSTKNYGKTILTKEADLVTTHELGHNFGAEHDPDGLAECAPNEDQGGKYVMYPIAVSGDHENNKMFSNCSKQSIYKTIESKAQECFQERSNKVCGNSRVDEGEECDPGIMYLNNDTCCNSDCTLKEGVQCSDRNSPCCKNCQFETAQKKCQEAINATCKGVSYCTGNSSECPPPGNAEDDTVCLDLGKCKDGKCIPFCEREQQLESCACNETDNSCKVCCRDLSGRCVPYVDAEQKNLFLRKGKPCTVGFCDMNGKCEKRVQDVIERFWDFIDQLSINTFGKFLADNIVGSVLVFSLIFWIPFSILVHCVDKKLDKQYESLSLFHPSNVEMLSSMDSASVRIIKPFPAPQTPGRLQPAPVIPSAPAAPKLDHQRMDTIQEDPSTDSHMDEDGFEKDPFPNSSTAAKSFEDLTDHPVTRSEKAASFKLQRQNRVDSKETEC

In the case of `CNC(=O)[C@H](Cc1ccccc1)NC(=O)[C@H](CC(C)C)[C@H](CSc1cccs1)C(=O)NO` [batimastat (BB-94), batimastat], the “water solubility (in words)” value in data set [1] is recorded as “very poor water solubility”.
For orientation: Ki means a measure of affinity in units of concentration, obtained from inhibition or displacement. One may read the solubility as the concentration that dissolves in the medium under given conditions. Low values mean a poorly soluble substance, high ones a readily soluble substance. As to `CNC(=O)C(CCCNC(=N)N)NC(=O)C1Cc2ccc(cc2)OCCCC(C(=O)NO)C(CC(C)C)C(=O)N1` (centres unmarked) [RYM], the Ki in data set [2] (mean ± SD of three experiments, read-out: Ki rhMMP-13) was determined as 15.3 ± 5.4 nM; in data set [3], 5.8 ± 0.4 nM; in [4], 20.4 ± 2 nM; in [5], 17.2 ± 0.1 nM; in data set [6] it was 1 ± 0.5 nM; in data set [8], 4.9 ± 1.3 nM. Also, in [7], the solubility turned out to be 10000 µg/mL (≈ 17.8 mM).
`CNC(=O)[C@H](Cc1c[nH]c2ccccc12)NC(=O)[C@@H](CC(=O)NO)CC(C)C` [GM-6001, reference compound]: the Ki was found to be 0.3 nM in data set [2], 0.4 nM in data set [5], 0.6 nM in data set [6] and 113 ± 4.1 nM in [8]. The “water solubility (in words)” value in data set [1] is listed as “very poor water solubility”.
On to `CC(C)CC1C(=O)NC(C(=O)NCc2ccc(CNC(=O)c3ccc(NN)nc3)cc2)Cc2ccc(cc2)OCCCC1C(=O)NO` (centres unmarked) [RP805 precursor], for which, in data set [1], the “water solubility (in words)” value was “poor water solubility”.
For the compound `CC(C)CC1C(=O)NC(C(=O)NC(CCCNC(=N)N)C(=O)NCCNC(=O)c2ccc(NN)nc2)Cc2ccc(cc2)OCCCC1C(=O)NO` [RYM1, (6 S,7 R,10 S)-N^10-((S)-5-guanidino-1-((2-(6-hydrazinylnicotinamido)ethyl)amino)-1-oxopentan-2-yl)-N^6-hydroxy-7-isobutyl-8-oxo-2-oxa-9-aza-1(1,4)-benzenacyclo undecaphane-6,10-dicarboxamide], the solubility in data set [7] came out at 10000 µg/mL (≈ 13.8 mM). The Ki was 2.2 ± 0.5 nM in data set [9] and 8.6 ± 2.2 nM in data set [8].
